# In US20260234630A1, “Methods for Treating Multiple Myeloma” (Celgene Corporation, priority 2022, published 2026):
# How the values were obtained:
# Type in all cases: cell-based
# Ikaros, Aiolos and ZFP91 = assay: Western blot of cereblon substrates in MM cells
# Description: FIG. 1A-1F. […] (1A) Volcano plot of protein expression changes determined by mass spectrometry in H929 cells at 24 hr of treatment with CC-220 (0.1 μM) or DMSO control. X axis, Log2fold change (FC); Y axis, significance,-log 10 [p-value]. […] (1B) Volcano plot of gene expression changes determined by Affymetrix microarray in H929 cells treated with POM (1 μM) or DMSO for 24 hr. X axis, Log2fold change (FC); Y axis, significance,-log 10 [p-value], n=2 technical replicates). […] (1C) Western blot analysis protein expression of UHRF1, Ikaros, Aiolos and ZFP91 in H929 cells treated with 1 μM POM for indicated time. (1D) qRT-PCR analysis of UHRF1 gene expression levels in cells as in (1C). Error bars represent the SEM from duplicate measurements. (1E) Western blot analysis protein expression of UHRF1 and indicated proteins in MM cells treated with DMSO (−) or 1 μM POM (+) for 3 days. GAPDH serves as a loading control. (1F) Thymidine incorporation of various MM cell lines treated with indicated dose of POM for 3 days. Error bars represent the SEM from technical replicates.
# FIG. 2A-2E. […] (2A) Western blot analysis protein expression of UHRF1, Ikaros, Aiolos, ZFP91 and Cereblon expression in control [shLuciferase (shLuc)] and cereblon knockdown (shCRBN) H929 cells treated with DMSO and 1 μM POM for 3 days. GAPDH, loading control. Arrow head, UHRF1. (2B) qRT-PCR analysis of UHRF1 gene expression levels in cells as in (2A). Data was normalized to ACTB. Error bars represent the SEM of technical duplicates. *** P<0.001 (Two-tailed unpaired Student's t-test). (2C) Western blot analysis protein expression of UHRF1, Ikaros and Aiolos in stably transduced H929 cells after Dox induction (0, 10, 50 or 100 ng/ml) for 3 days of non-target shRNA (shNT) or shRNAs targeting Ikaros (shIKZF1) or Aiolos (shIKZF3). (2D) qRT-PCR analysis of UHRF1 gene expression levels in cells as in (2C). Shown are cells induced with Dox (50 ng/ml) for 3 days. Data was normalized to GAPDH. Error bars represent the SEM of technical duplicates. *P<0.05, ** P<0.01, *** P<0.001, **** P<0.0001 (Two-tailed unpaired Student's t-test). […] ChIP with control rabbit IgG (IgG) serves as a negative control. Error bars represent the SEM of technical triplicates. * P<0.05, ** P<0.01, **** P<0.0001 (Two-tailed unpaired Student's t-test).
# Cells were lysed with cell lysis buffer (50 mM TrisHCl pH7.4, 250 mM NaCl, 0.5% Triton X100, 10% glycerol) supplemented with protease inhibitor cocktail. Cell lysates were subjected to sonication to breakdown nuclei and reduce viscosity caused by released genomic DNA. The protein concentration was measured by a Bradford Protein Assay (Bio-Rad). […] Proteins of interested were detected incubation with primary antibodies listed below at 4° C. overnight. […]
# UHRF1 = assay: Immunocytochemistry assay of UHRF1 in H929 cells; details: 48 hours after 1 μM POM
# Description: FIG. 6A-6D. […] (6A) Immunocytochemistry assay of UHRF1 in H929 cells treated with DMSO or 1 μM POM for 48 hrs. (6B) qRT-PCR analysis of UHRF1 gene expression levels in indicated MM cells treated with indicated doses of POM for 3 days. Data was normalized to ACTB. Error bars represent the SEM from duplicate measurements. * P<0.05, ** P<0.01, *** P<0.001, **** P<0.0001 (Two-tailed Student's t-test). (6C) Western blot analysis protein expression of UHRF1, Ikaros, Aiolos, ZFP91 and Celebron in H929 cells treated with 1 μM POM or 0.1 μM CC-220 for 3 days. DMSO, vehicle control. (6D) Western blot analysis protein expression of UHRF1, Ikaros, Aiolos, ZFP91 and Celebron in H929 or RPMI 8226 cells treated with 1 μM POM, 0.1 μM CC-220 or 0.01 μM CC-480 for 3 days. DMSO, vehicle control.
# [1] = system: multiple myeloma (MM) cells; assay: (3H)-thymidine incorporation assay of MM cell lines; details: POM 3 days
# Description: FIG. 1A-1F. Down regulation of UHRF1 transcription by IMiDs correlates with drug sensitivity of multiple myeloma. (1A) Volcano plot of protein expression changes determined by mass spectrometry in H929 cells at 24 hr of treatment with CC-220 (0.1 μM) or DMSO control. X axis, Log2fold change (FC); Y axis, significance,-log 10 [p-value]. […] (1B) Volcano plot of gene expression changes determined by Affymetrix microarray in H929 cells treated with POM (1 μM) or DMSO for 24 hr. X axis, Log2fold change (FC); Y axis, significance,-log 10 [p-value], n=2 technical replicates). […] (1C) Western blot analysis protein expression of UHRF1, Ikaros, Aiolos and ZFP91 in H929 cells treated with 1 μM POM for indicated time. (1D) qRT-PCR analysis of UHRF1 gene expression levels in cells as in (1C). Error bars represent the SEM from duplicate measurements. (1E) Western blot analysis protein expression of UHRF1 and indicated proteins in MM cells treated with DMSO (−) or 1 μM POM (+) for 3 days. GAPDH serves as a loading control. (1F) Thymidine incorporation of various MM cell lines treated with indicated dose of POM for 3 days. Error bars represent the SEM from technical replicates.
# (3H)-thymidine incorporation assay was performed as previously described (PMID: 23252516) with minor modifications. Briefly, 1×10^4 or 2×10^5 multiple myeloma (MM) cells were cultured in 96-well culture plates in complete media with the indicated concentration of pomalidomide (POM) or DMSO control for 3 days. 37 kBg (3H)-thymidine was added to each will at the final 6 hour of incubation.
structure (smiles),measurement,setting,value
"Nc1cccc2c1C(=O)N(C1CCC(=O)NC1=O)C2=O (stereo not drawn) [POM, pomalidomide]","time to degradation of Ikaros, Aiolos and ZFP91 proteins","Ikaros, Aiolos and ZFP91; H929 cells, POM 1 μM, time course",≤ 3 h
same,"cereblon substrates (Ikaros, Aiolos, ZFP91) protein","Ikaros, Aiolos and ZFP91; MC/CAR and RPMI 8226 cells, 1 μM POM, 3 days",degraded
same,"Ikaros, Aiolos and ZFP91 expression level","Ikaros, Aiolos and ZFP91; sensitive cell lines H929, MM1.S, DF15 and U266, 1 μM POM, 72 hours",downregulated
same,degradation of the substrates by POM under cereblon knockdown,"Ikaros, Aiolos and ZFP91; shCRBN vs shLuc H929 cells, 1 μM POM, 3 days",rescued
same,UHRF1 protein by immunocytochemistry,UHRF1,nearly undetectable
same,drug sensitivity of cell lines,"[1]; H929, MM1.S, DF15 and U266",sensitive
same,drug sensitivity of cell lines,[1]; H929 PR and DF15 PR (diminished cereblon expression),acquired resistance
same,drug sensitivity of cell line,[1]; MC/CAR,less sensitive
same,drug sensitivity of cell line,[1]; RPMI 8226,intrinsically resistant
